According to the supplement of paper PMC11061612:

What was measured:
Assay in all cases: combination Emax (second highest fraction inhibited in the dose matrix, 72 h); higher = more inhibition; extreme values may be limits of the assay
[1] = system: ETK-1 (Biliary Tract Carcinoma)
How it was run: (§1)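 Bliss excess equals the observed combination effect minus the expected value EA + EB − EA·EB, where EA and EB are the effects of each agent alone. Combination Emax is the second-highest inhibition within the matrix. Inhibition was scaled from CellTiter-Glo 2.0 luminescence, with 0 set by vehicle wells and 1 by blank wells, after 72 hours of two-drug dosing of cells plated in 1536-well plates.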

[2] = system: D-283MED (Other Solid Carcinomas)
How it was run: as §1

[3] = system: EW-22 (Ewing's Sarcoma)
How it was run: as §1

[4] = system: RCC10RGB (Kidney Carcinoma)
How it was run: as §1

[5] = system: SK-MEL-1 (Melanoma)
How it was run: as §1

[6] = system: SW948 (Colorectal Carcinoma)
How it was run: as §1

[7] = system: PA-TU-8902 (Pancreatic Carcinoma)
How it was run: as §1

[8] = system: 647-V (Bladder Carcinoma)
How it was run: as §1

[9] = system: EFM-192A (Breast Carcinoma)
How it was run: as §1

[10] = system: CAL-39 (Other Solid Carcinomas)
How it was run: as §1

[11] = system: DOK (Oral Cavity Carcinoma)
How it was run: as §1

[12] = system: H4 (Low Grade Glioma)
How it was run: as §1

[13] = system: HCT-116 (Colorectal Carcinoma)
How it was run: as §1

[14] = system: SLVL (B-Cell Non-Hodgkin's Lymphoma)
How it was run: as §1

[15] = system: HLE (Hepatocellular Carcinoma)
How it was run: as §1

[16] = system: WSU-DLCL2 (B-Cell Non-Hodgkin's Lymphoma)
How it was run: as §1

[17] = system: U-118-MG (Low Grade Glioma)
How it was run: as §1

[18] = system: MSTO-211H (Mesothelioma)
How it was run: as §1

[19] = system: HCC38 (Breast Carcinoma)
How it was run: as §1

[20] = system: NOMO-1 (Acute Myeloid Leukemia)
How it was run: as §1

Row | SMILES | combination Emax [1] | combination Emax [2] | combination Emax [3] | combination Emax [4] | combination Emax [5] | combination Emax [6] | combination Emax [7] | combination Emax [8] | combination Emax [9] | combination Emax [10] | combination Emax [11] | combination Emax [12] | combination Emax [13] | combination Emax [14] | combination Emax [15] | combination Emax [16] | combination Emax [17] | combination Emax [18] | combination Emax [19] | combination Emax [20]
1 | COc1cc2ncnc(Nc3ccc(F)c(Cl)c3)c2cc1OCCCN1CCOCC1 [Gefitinib] + CC(C)n1c(=O)n(C)c2cnc3cc(F)c(-c4ccc(OCCCN5CCCCC5)nc4)cc3c21 [AZD1390] (first compound max 10 µM, 7x7, partner max 0.3 µM) | 0.576 | 0.425 | 0.244 | 0.563 | 0.43 | 0.162 | 0.14 | 0.0854 | 0.262 | 0.833 | 0.382 | 0.121 | 0.133 | 0.185 | 0.101 | 0.128 | 0.0987 | 0.0343 | 0.109 | 0.328
2 | CS(=O)(=O)CCNCc1ccc(-c2ccc3ncnc(Nc4ccc(OCc5cccc(F)c5)c(Cl)c4)c3c2)o1 [Lapatinib] + C[C@@H](Oc1cc(-c2cnn(C3CCNCC3)c2)cnc1N)c1c(Cl)ccc(F)c1Cl [Crizotinib] (first compound max 10 µM, 7x7, partner max 10 µM) | 0.958 | 0.985 | 0.887 | 0.908 | 0.954 | 0.819 | 0.775 | 0.906 | 0.878 | 1 | 0.979 | 0.944 | 0.956 | 0.65 | 0.537 | 0.924 | 0.491 | 0.263 | 0.556 | 0.828
3 | CC(=O)c1c(C)c2cnc(Nc3ccc(N4CCNCC4)cn3)nc2n(C2CCCC2)c1=O [Palbociclib] + CC1(C)CCC(CN2CCN(c3ccc(C(=O)NS(=O)(=O)c4ccc(NCC5CCOCC5)c([N+](=O)[O-])c4)c(Oc4cnc5[nH]ccc5c4)c3)CC2)=C(c2ccc(Cl)cc2)C1 [Venetoclax] (first compound max 10 µM, 7x7, partner max 1 µM) | 0.281 | 0.668 | 0.347 | 0.476 | 0.242 | 0.382 | 0.245 | 0.098 | 0.165 | 0.255 | 0.126 | 0.597 | 0.559 | 0.325 | 0.0796 | 0.98 | 0.229 | 0.0513 | 0.0554 | 0.596
4 | CC(=O)c1c(C)c2cnc(Nc3ccc(N4CCNCC4)cn3)nc2n(C2CCCC2)c1=O [Palbociclib] + Cc1c2c(nn1C)CSCc1cc(n(C)n1)CSc1cc(c3ccccc3c1)OCCCc1c(C(=O)O)n(C)c3c-2c(Cl)ccc13 [AZD5991] (first compound max 10 µM, 7x7, partner max 1 µM) | 0.303 | 0.797 | 0.515 | 0.419 | 0.262 | 0.406 | 0.283 | 0.117 | 0.436 | 0.409 | 0.311 | 0.601 | 0.663 | 0.471 | 0.211 | 0.991 | 0.322 | 0.144 | 0.192 | 0.858
5 | CC(=O)c1c(C)c2cnc(Nc3ccc(N4CCNCC4)cn3)nc2n(C2CCCC2)c1=O [Palbociclib] + Cn1cnc2c(F)c(Nc3ccc(Br)cc3Cl)c(C(=O)NOCCO)cc21 [Selumetinib] (first compound max 10 µM, 7x7, partner max 10 µM) | 0.347 | 0.582 | 0.25 | 0.547 | 0.83 | 0.665 | 0.416 | 0.206 | 0.169 | 0.775 | 0.5 | 0.632 | 0.851 | 0.593 | 0.143 | 0.834 | 0.296 | 0.137 | 0.139 | 0.858
6 | COc1cccc(OCCCN)c1-c1cc(Nc2cnc(C#N)cn2)n[nH]1 [Prexasertib] + C=CCn1c(=O)c2cnc(Nc3ccc(N4CCN(C)CC4)cc3)nc2n1-c1cccc(C(C)(C)O)n1 [AZD1775] (first compound max 1 µM, partner max 1 µM) | 0.666 | 1 | 0.866 | 0.6 | 0.605 | 0.896 | 0.605 | 0.925 | 0.416 | 0.694 | 0.685 | 0.979 | 0.921 | 0.951 | 0.881 | 1 | 0.743 | 0.875 | 0.799 | 1
7 | COc1cccc(OCCCN)c1-c1cc(Nc2cnc(C#N)cn2)n[nH]1 [Prexasertib] + CCc1c2c(nc3ccc(O)cc13)-c1cc3c(c(=O)n1C2)COC(=O)[C@]3(O)CC [SN-38] (first compound max 1 µM, 7x7, partner max 0.3 µM) | 0.727 | 0.99 | 0.94 | 0.825 | 0.623 | 0.94 | 0.752 | 1 | 0.318 | 0.919 | 0.627 | 0.941 | 0.901 | 0.968 | 0.95 | 1 | 0.986 | 0.808 | 0.753 | 1
8 | COc1cccc(OCCCN)c1-c1cc(Nc2cnc(C#N)cn2)n[nH]1 [Prexasertib] + CN(C)CCCOc1ccc(-c2ccc3ncc4c(c3c2)n(C2CCOCC2)c(=O)n4C)cn1 [AZD0156] (first compound max 1 µM, 7x7, partner max 1 µM) | 0.598 | 0.99 | 0.898 | 0.484 | 0.605 | 0.804 | 0.586 | 0.671 | 0.233 | 0.258 | 0.348 | 0.917 | 0.536 | 0.951 | 0.803 | 1 | 0.723 | 0.888 | 0.711 | 1
9 | COc1cccc(OCCCN)c1-c1cc(Nc2cnc(C#N)cn2)n[nH]1 [Prexasertib] + C[C@@H]1COCCN1C2=NC(=NC(=C2)C3(CC3)[S@](=N)(=O)C)C4=C5C=CNC5=NC=C4 [AZD6738] (first compound max 1 µM, 7x7, partner max 10 µM) | 0.588 | 0.988 | 0.888 | 0.45 | 0.624 | 0.821 | 0.601 | 0.703 | 0.188 | 0.524 | 0.43 | 0.91 | 0.747 | 0.952 | 0.867 | 1 | 0.772 | 0.852 | 0.723 | 1
10 | COc1cccc(OCCCN)c1-c1cc(Nc2cnc(C#N)cn2)n[nH]1 [Prexasertib] + Cc1cc2ncnn2cc1Nc1ncc2c(n1)n(C1CCOCC1)c(=O)n2C [AZD7648] (first compound max 1 µM, 7x7, partner max 10 µM) | 0.595 | 0.995 | 0.89 | 0.442 | 0.653 | 0.812 | 0.598 | 0.757 | 0.284 | 0.328 | 0.499 | 0.874 | 0.565 | 0.962 | 0.842 | 1 | 0.686 | 0.894 | 0.74 | 1
11 | COc1cccc(OCCCN)c1-c1cc(Nc2cnc(C#N)cn2)n[nH]1 [Prexasertib] + O=C(c1cc(Cc2n[nH]c(=O)c3ccccc23)ccc1F)N1CCN(C(=O)C2CC2)CC1 [Olaparib] (first compound max 1 µM, 7x7, partner max 10 µM) | 0.578 | 0.982 | 0.957 | 0.479 | 0.596 | 0.838 | 0.501 | 0.843 | 0.143 | 0.387 | 0.418 | 0.845 | 0.744 | 0.974 | 0.842 | 1 | 0.751 | 0.806 | 0.677 | 1
12 | COc1cc2c(cc1OCCCCCOc1cc3c(cc1OC)C(=O)N1C=C(C)C[C@H]1C=N3)N=C[C@@H]1CC(C)=CN1C2=O [SG3199] + O=C(c1cc(Cc2n[nH]c(=O)c3ccccc23)ccc1F)N1CCN(C(=O)C2CC2)CC1 [Olaparib] (first compound max 0.001 µM, 7x7, partner max 10 µM) | 0.188 | 0.417 | 0.894 | 0.148 | 0.134 | 0.185 | 0.0749 | 0.276 | 0.129 | 0.0869 | 0.121 | 0.505 | 0.314 | 0.518 | 0.143 | 0.127 | 0.305 | 0.124 | 0.0919 | 0.145
13 | CCc1c2c(nc3ccc(O)cc13)-c1cc3c(c(=O)n1C2)COC(=O)[C@]3(O)CC [SN-38] + CN(C)CCCOc1ccc(-c2ccc3ncc4c(c3c2)n(C2CCOCC2)c(=O)n4C)cn1 [AZD0156] (first compound max 0.3 µM, 7x7, partner max 1 µM) | 0.572 | 0.954 | 0.951 | 0.689 | 0.538 | 0.746 | 0.413 | 0.985 | 0.174 | 0.896 | 0.488 | 0.931 | 0.826 | 0.972 | 0.916 | 0.944 | 0.893 | 0.804 | 0.682 | 0.98
